Reference: article PMC7449411, “In silico discovery and biological validation of ligands of FAD synthase, a promising new antimicrobial target” (PLoS Computational Biology, 2020)
≈ marks a conversion by molar mass, not a printed value.

How the values were obtained:
[1] = test system: C. diphteriae; assay: MIC, resazurin broth microdilution; assay type: cell-based, Corynebacterium diphteriae
[2] = test system: E. coli; assay: MIC, resazurin broth microdilution; assay type: cell-based, Escherichia coli; settings: media LB
[3] = test system: C. glutamicum; assay: MIC, resazurin broth microdilution; assay type: cell-based, Corynebacterium glutamicum; settings: media BHI
[4] = biological target: T1, RFK+FMNAT CaFADS activities (Corynebacterium ammoniagenes, UniProt Q59263); assay: Inhibition of the RFK+FMNAT activity of CaFADS; assay type: biochemical; settings: residual activity at 250 μM of compound, 25 °C
T1 construct: made in house; host or cells: Escherichia coli BL21(DE3)
T1 sequence (Q59263 whole entry): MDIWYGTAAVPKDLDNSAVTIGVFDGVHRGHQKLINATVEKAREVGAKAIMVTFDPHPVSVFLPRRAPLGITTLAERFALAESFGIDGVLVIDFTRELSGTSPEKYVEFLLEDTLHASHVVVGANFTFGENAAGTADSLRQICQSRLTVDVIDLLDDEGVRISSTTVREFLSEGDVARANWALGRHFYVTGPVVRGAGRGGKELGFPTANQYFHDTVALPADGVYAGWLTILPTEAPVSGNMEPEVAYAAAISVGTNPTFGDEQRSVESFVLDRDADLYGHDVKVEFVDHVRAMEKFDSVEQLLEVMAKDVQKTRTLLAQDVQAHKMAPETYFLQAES
Method: (§1) To determine the compound’s ability to inhibit the RFK and/or the FMNAT activities of CaFADS, both enzymatic activities were quantitatively measured in the absence and presence of the compounds following previously described protocols. Reaction mixtures contained 50 μM ATP, 5 μM RF in 20 mM PIPES, pH 7.0, 0.8 mM MgCl2, when assaying the RFK activity, and 50 μM ATP, 10 μM FMN in 20 mM PIPES, pH 7.0, 10 mM MgCl2 when measuring the FMNAT reaction. Each compound was tested at 250 μM (0.5% residual final concentration of DMSO) for each of the two enzymatic reactions. The samples were pre-incubated at 25 °C, the reaction was then initiated by the addition of ∼ 40 nM CaFADS (final concentration) and allowed for 1 min. Finally, the reaction was stopped by boiling the samples for 5 min and the denatured protein was eliminated through centrifugation. The transformation of RF into FMN and FAD (RFK activity) and of FMN into FAD (FMNAT activity) was evaluated through flavins separation by HPLC (Waters), as previously described. All the experiments were performed in triplicate. To evaluate the potency of compounds as inhibitors, we took advantage of the decrease in quantum yield of fluorescence when FMN is transformed into FAD, which allows to follow such transformation in a continuous system. Measurements were carried out using a microplate reader Synergy HT multimode plate reader (Biotek) with BRAND 96-well plates pure Grade. Reaction mixtures contained 5 μM RF or FMN, and 50 μM ATP in 20 mM PIPES, pH 7.0, 10 mM MgCl2, and the inhibitor compound in a 5-250 μM concentration range (2% residual final concentration of DMSO). Reactions were initiated through addition of 0.4 μM CaFADS, being the final reaction volume 100 μL. Flavin fluorescence (excitation at 440 nm and emission at 530 nm) was registered at 25 °C, every 50 s during 15 min. The fluorescence change per time unit (ΔF/Δt) was calculated as the slope of the resulting fluorescence decays recorded between 0 and 6 min (linear decay of the fluorescence). Controls which contained the reaction mixture without the enzyme and without any potential CaFADS inhibitory compound were included in the assay and referred as the 0% and 100% of enzymatic activity, respectively. IC50 was calculated as the concentration of compound required for a 50% inhibition of the enzymatic activity.

[5] = test system: C. ammoniagenes; assay: MIC, resazurin broth microdilution; assay type: cell-based, Corynebacterium ammoniagenes; settings: for MIC: C. ammoniagenes; for MIC C. ammoniagenes: S5 Fig legend, medium not stated; for MIC (μM) C. ammoniagenes: Table 3
[6] = test system: HeLa; assay: MTT cytotoxicity assay; assay type: cell-based; settings: 24 h; for IC50: 4-512 μM range, read-out: IC50 (concentration causing 50% inhibition of cellular viability)
Method: (§2) The (4,5-dimethylthiazol-2-yl)-2,5-diphenyl tetrazolium bromide (MTT) assay was used to determine the effect of the compounds in cell growth and viability of HeLa (ATCC CCL-2) and A549 (ATCC CCL-185) eukaryotic cell lines. Both cell lines were routinely cultured in high-glucose DMEM (Lonza) supplemented with 10% fetal bovine serum, 4 mM glutamine GlutaMAX™ (Gibco) and 1x non-essential amino acids (Gibco), under 5% CO2 at 37 °C in a humidified atmosphere. For the MTT assay, cells were initially seeded in 96-well flat-bottom plates at a density of 10^4 cells per well and cultured for 24 h. Cultures were routinely tested for mycoplasma presence. The compounds were dissolved in fresh culture medium, added in a 4-512 μM concentration range (1% DMSO final concentration), and incubated with the cells for 24 h. Finally, formazan crystals were dissolved with pure DMSO and MTT absorbance was measured at 570 and 650 nm. Untreated cells were included as control of 100% viability. Assays were done in quadruplicate.

[7] = test system: A549; assay: MTT cytotoxicity assay; assay type: cell-based; settings: 24 h; for IC50: 4-512 μM range, read-out: IC50 (concentration causing 50% inhibition of cellular viability)
Method: as §2

[8] = test system: P. aeruginosa; assay: MIC, resazurin broth microdilution; assay type: cell-based, Pseudomonas aeruginosa; settings: media MH
[9] = test system: S. thyphimurium; assay: MIC, resazurin broth microdilution; assay type: cell-based, Salmonella thyphimurium; settings: media MH
[10] = test system: S. aureus; assay: MIC, resazurin broth microdilution; assay type: cell-based, Staphylococcus aureus; settings: media MH
[11] = test system: Mycobacteriumspecies; assay: MIC against Mycobacterium species (S5 Fig legend); assay type: cell-based
[12] = test system: M. tuberculosis; assay: MIC, resazurin broth microdilution; assay type: cell-based, Mycobacterium tuberculosis; settings: for MIC (μM) M. tuberculosis: Table 3; for MIC: M. tuberculosis, media 7H9G-ADC
[13] = test system: L. monocytogenes; assay: MIC, resazurin broth microdilution; assay type: cell-based, Listeria monocytogenes; settings: media BHI
[14] = biological target: T2, FMNAT activity of CaFADS (Corynebacterium ammoniagenes, UniProt Q59263); assay: Inhibition of the FMNAT activity of CaFADS; assay type: biochemical
T2 construct: made in house; host or cells: Escherichia coli BL21(DE3)
T2 sequence (Q59263 whole entry): as above
Method: as §1

[15] = test system: S. pneumoniae; assay: MIC, resazurin broth microdilution; assay type: cell-based, Streptococcus pneumoniae
[16] = biological target: T3, CaFADS (Corynebacterium ammoniagenes, UniProt Q59263); assay: Differential scanning fluorescence (thermal denaturation) binding to CaFADS; settings: for Tm shift of CaFADS thermal denaturation: 2 μM CaFADS, compound up to 250 μM; for Kd: from differential scanning fluorescence data fitted to Eq 2, 20 mM PIPES pH 7.0, 10 mM MgCl2, 2% DMSO, n = 3, mean ± SD
T3 construct: made in house; host or cells: Escherichia coli BL21(DE3)
T3 sequence (Q59263 whole entry): as above
Method: Interaction of compounds with CaFADS was evaluated using fluorescence thermal denaturation, on the bases of the shifts in denaturation midpoints of thermal curves of the protein [65]. Denaturations were performed in a Stratagene Agilent Mx3005p qPCR instrument (Santa Clara, US) following SYPR Orange (ThermoFisher Scientific) emission fluorescence (excitation at 492 nm and emission at 610 nm), which greatly increases when this probe binds to protein hydrophobic regions becoming solvent exposed upon thermal unfolding. Solutions containing 2 μM CaFADS with the studied compound in an increasing 5-250 μM concentration range (2% residual final concentration of DMSO) and 5xSYPR Orange in 20 mM PIPES pH 7.0, 10 mM MgCl2, with a 100 μL total volume were dispensed into 96-well microplates (BRAND 96-well plates pure grade™). After an initial 1 min incubation at 25 °C within the equipment, unfolding curves were registered from 25 to 100 °C at 1 °C·min^−1. Control experiments with CaFADS samples with/without DMSO were routinely performed in each microplate. For those compounds shifting midpoint denaturation temperature, Tm, the dissociation constant, Kd, was predicted by fitting the data to the equation [66] ΔTm/Tm=NRTm0/ΔH0ln(1+[L]/Kd), (2) which estimates the extent of the ligand-induced protein stabilization/destabilization. ΔTm=|Tm-Tm0| with Tm0 and Tm being the midpoint denaturation temperatures in the absence and the presence of ligand, respectively, and ΔH0 the unfolding enthalpy of the protein in the absence of ligand.

[17] = test system: M. smegmatis; assay: MIC, resazurin broth microdilution; assay type: cell-based, Mycobacterium smegmatis; settings: media 7H9G-ADC
[18] = test system: Bacillus spp.; assay: MIC, resazurin broth microdilution; assay type: cell-based, Bacillus sp.; settings: media MH
[19] = complete viability at lower concentrations

SMILES | MIC ([1]; media BHI) [µM] | MIC ([1]; media MH) [µM] | MIC [2] [µM] | MIC [3] [µM] | MIC ([5]; media BHI) [µM] | MIC ([5]; media MH) [µM] | MIC ([5]; media MH+DFO) [µM] | MIC ([5]; media MH+DIP) [µM] | MIC ([5]; media MH+DIP+DFO) [µM] | MIC C. ammoniagenes [5] | MIC (μM) C. ammoniagenes [5] [µM] | IC50 [6] [µM] | IC50 [7] [µM] | MIC [8] [µM] | MIC [9] [µM] | MIC [10] [µM] | MIC Mycobacterium species [11] | MIC (μM) M. tuberculosis [12] [µM] | MIC [13] [µM] | MIC ([15]; media BHI) [µM] | other results
CC(C)c1ccc(NC(=S)NNC(=O)NC(=O)c2csc([N+](=O)[O-])c2)cc1 [Compound C6, N-({2-[(4-isopropylanilino)carbothioyl]hydrazino}carbonyl)-5-nitrothiophene-3-carboxamide] | > 64 | 128 (≈ 52.2 µg/mL) | > 64 | > 64 | > 64 | 128 (≈ 52.2 µg/mL) | 128 (≈ 52.2 µg/mL) | 128 (≈ 52.2 µg/mL) | 128 (≈ 52.2 µg/mL) | lower than 256 μM | 128 (≈ 52.2 µg/mL) | > 512 | > 512 | > 256 | > 256 | > 256 | lower than 256 μM | 128 (≈ 52.2 µg/mL) | > 64 | > 256 | RFK+FMNAT % Res. act. 250 μM [4]: 57 ± 3%; FMNAT % Res. act. 250 μM ([14]; residual activity at 250 μM of compound, 25 °C): 48 ± 6%; MIC ([15]; media MH): 64 µM (≈ 26.1 µg/mL); Tm shift of CaFADS thermal denaturation [16]: more than 3 degrees; Kd [16]: 41 ± 3 µM; MIC [17]: > 256 µM
O=C(Nc1ccccc1C(=O)O)OCC1c2ccccc2-c2ccccc21 [Compound C5, 2-{[(9H-9-fluorenylmethoxy)carbonyl]amino}benzoic acid] | 64 (≈ 23 µg/mL) | 32 (≈ 11.5 µg/mL) | > 64 | 32 (≈ 11.5 µg/mL) | > 64 | 32 (≈ 11.5 µg/mL) | 32 (≈ 11.5 µg/mL) | 32 (≈ 11.5 µg/mL) | 32 (≈ 11.5 µg/mL) | – | 32 (≈ 11.5 µg/mL) | > 512 | > 512 | > 256 | > 256 | – | lower than 256 μM | 128 (≈ 46 µg/mL) | > 64 | 128 (≈ 46 µg/mL) | MIC [18]: 32 µM (≈ 11.5 µg/mL); MIC [12]: 128 µM (≈ 46 µg/mL); inhibition of the FMNAT activity of CaFADS ([14]; at the maximal compound concentration assayed (250 μM)): over 90%; MIC ([15]; media MH): 256 µM (≈ 92 µg/mL); Tm shift of CaFADS thermal denaturation [16]: shifted it to lower values; Kd [16]: 1.7 ± 0.7 µM; MIC [17]: > 256 µM
CC1(C)c2ccccc2-n2c1cc1oc(=O)cc(O)c1c2=O [Compound C27, 4-hydroxy-11,11-dimethyl-5,11-dihydro-2H-pyrano[2',3':4,5]pyrido[1,2-a]indole-2,5-dione] | – | 64 (≈ 18.9 µg/mL) | > 256 | 64 (≈ 18.9 µg/mL) | – | 128 (≈ 37.8 µg/mL) | 128 (≈ 37.8 µg/mL) | 64 (≈ 18.9 µg/mL) | 128 (≈ 37.8 µg/mL) | lower than 256 μM | 128 (≈ 37.8 µg/mL) | – | – | > 256 | > 256 | 64 (≈ 18.9 µg/mL) | lower than 256 μM | 256 (≈ 75.6 µg/mL) | 64 (≈ 18.9 µg/mL) | – | concentration range with moderate cytotoxicity [6, 19]: 256 to 512 µM; concentration range with moderate cytotoxicity [7, 19]: 256 to 512 µM; MIC [18]: 32 µM (≈ 9.45 µg/mL); MIC [12]: 256 µM (≈ 75.6 µg/mL)
